# According to ChEMBL document CHEMBL3286201, “Antileishmanial activity of a series of N²,N⁴-disubstituted quinazoline-2,4-diamines” (J Med Chem, 2014):
# Columns and labels:
# [1] = test system: Leishmania donovani; experiment: Antileishmanial activity against clinical isolate Leishmania donovani BPK206/0 infected in mouse J774A1 cells by colorimetric assay; conditions: BPK206/0, J774.A1
# [2] = test system: Liver; experiment: Half life in mouse liver microsomes at 1 uM after 60 mins by HPLC-MS/MS analysis; assay type: ADME; conditions: 1 h
# [3] = test system: Spleen; experiment: Cmax in Swiss Webster mouse spleen at 100 umol/kg, ip; assay type: ADME, tissue-based; parameters: dose 100 umol/kg, route intraperitoneal; conditions: in vivo
# [4] = test system: Spleen; experiment: AUC (last) in Swiss Webster mouse spleen at 100 umol/kg, ip; assay type: ADME, tissue-based; parameters: dose 100 umol/kg, route intraperitoneal, time 0 - last; conditions: in vivo
# [5] = test system: Leishmania donovani; experiment: Antileishmanial activity against intracellular amastigote stage of Leishmania donovani MHOM/ET/67/L82 infected in mouse J774A1 cells by colorimetric assay; assay type: functional, organism-based; conditions: MHOM/ET/67/L82, J774.A1
# [6] = Elimination half life in Swiss Webster mouse plasma at 100 umol/kg, po; assay type: ADME, cell-free
# [7] = test system: Liver; experiment: Cmax in Swiss Webster mouse liver at 100 umol/kg, po; assay type: ADME, tissue-based; parameters: dose 100 umol/kg, route oral; conditions: in vivo
# [8] = Distribution coefficient, log D of the compound at pH 7.4; assay type: physicochemical; conditions: octanol/water
# [9] = Elimination half life in Swiss Webster mouse plasma at 100 umol/kg, ip; assay type: ADME, cell-free; conditions: read-out: beta t1/2 (converted)
# [10] = test system: Mus musculus; experiment: Toxicity in BALB/c mouse assessed as hypoactivity at 30 mg/kg, ip for 5 consecutive doses; assay type: organism-based; parameters: dose 30 mg/kg, route intraperitoneal; conditions: in vivo
# [11] = test system: Spleen; experiment: AUC (last) in Swiss Webster mouse spleen at 100 umol/kg, po; assay type: ADME, tissue-based; parameters: dose 100 umol/kg, time 0 - last, route oral; conditions: in vivo
# [12] = AUC (last) in Swiss Webster mouse plasma at 100 umol/kg, ip; assay type: ADME, cell-free; parameters: dose 100 umol/kg, route intraperitoneal, time 0 - last
# [13] = test system: Spleen; experiment: Cmax in Swiss Webster mouse spleen at 100 umol/kg, po; assay type: ADME, tissue-based; parameters: dose 100 umol/kg, route oral; conditions: in vivo
# [14] = Distribution coefficient, log D of the compound at pH 3; assay type: physicochemical; conditions: octanol/water
# [15] = Aqueous solubility of the compound at pH 2; assay type: physicochemical; conditions: buffer
# [16] = AUC (last) in Swiss Webster mouse plasma at 100 umol/kg, po; assay type: ADME, cell-free; parameters: dose 100 umol/kg, route oral, time 0 - last
# [17] = test system: Liver; experiment: Cmax in Swiss Webster mouse liver at 100 umol/kg, ip; assay type: ADME, tissue-based; parameters: dose 100 umol/kg, route intraperitoneal; conditions: in vivo
# [18] = pampa, pH 4
# Description: Passive transcellular permeability of the compound at pH 4 by PAMPA
# [19] = test system: Leishmania amazonensis; experiment: Antileishmanial activity against intracellular amastigote stage of Leishmania amazonensis LV78 infected in mouse J774A1 cells by colorimetric assay; assay type: functional, organism-based; conditions: LV78, J774.A1
# [20] = Cmax in Swiss Webster mouse plasma at 100 umol/kg, po; assay type: ADME, cell-free; parameters: dose 100 umol/kg, route oral
# [21] = Cmax in Swiss Webster mouse plasma at 100 umol/kg, ip; assay type: ADME, cell-free; parameters: dose 100 umol/kg, route intraperitoneal
# [22] = Cytotoxicity against mouse J774A1 cells after 72 hrs by MTT assay; assay type: cell-based; conditions: J774.A1, 72 h
# [23] = pampa, pH 7.4
# Description: Passive transcellular permeability of the compound at pH 7.4 by PAMPA
# [24] = Aqueous solubility of the compound at pH 7.4; assay type: physicochemical; conditions: buffer
# [25] = test system: Liver; experiment: AUC (last) in Swiss Webster mouse liver at 100 umol/kg, po; assay type: ADME, tissue-based; parameters: dose 100 umol/kg, time 0 - last, route oral; conditions: in vivo
# [26] = test system: Liver; experiment: AUC (last) in Swiss Webster mouse liver at 100 umol/kg, ip; assay type: ADME, tissue-based; parameters: dose 100 umol/kg, time 0 - last, route intraperitoneal; conditions: in vivo
# [27] = test system: Leishmania donovani; experiment: Antileishmanial activity against antimony-resistant clinical isolate Leishmania donovani BPK164/1 infected in mouse J774A1 cells by colorimetric assay; assay type: functional, organism-based; conditions: BPK164/1, J774.A1
# [28] = test system: Mus musculus; experiment: Toxicity in BALB/c mouse assessed as slowed breathing at 30 mg/kg, ip for 5 consecutive doses; assay type: organism-based; parameters: dose 30 mg/kg, route intraperitoneal; conditions: in vivo
SMILES,EC50 [1] [µM],t1/2 [2] [h],Cmax [3] [µM],AUClast [4] [µM·h],EC50 [5] [µM],Cmax [7] [µM],logD [8],half-life [9] [h],AUClast [11] [µM·h],AUC(0-t) [12] [µM·h],Cmax [13] [µM],logD [14],solubility [15] [µM],AUC(0-t) [16] [µM·h],Cmax [17] [µM],permeability [18] [×10⁻⁶ cm/s],EC50 [19] [µM],Cmax [20] [µM],Cmax [21] [µM],EC50 [22] [µM],further results
Cc1ccc2c(NCc3ccco3)nc(NC(C)C)nc2c1,4.2,0.157,45.8,71,0.83,5.2,3.61,5.4,7.4,4.6,0.9,1.58,≥ 30,2.5,48,67.2,4.1,0.25,2.67,> 33,half-life [6]: 20 h; Activity [10]: Toxic; permeability [23]: 798 ×10⁻⁶ cm/s; solubility [24]: ≤ 20 µM; AUClast [25]: 29 µM·h; AUClast [26]: 42 µM·h; EC50 [27]: 3.8 µM
CCCCNc1nc(NCc2ccccc2)nc2ccccc12,2,0.45,163,620,0.34,15.8,3.84,20,68,11,7,2.86,≥ 30,7.8,148,341,1.4,0.44,5.21,4.9,Activity [28]: Toxic; permeability [23]: 1020 ×10⁻⁶ cm/s; solubility [24]: ≤ 10 µM; AUClast [25]: 110 µM·h; AUClast [26]: 500 µM·h; EC50 [27]: 1.4 µM
